Experimental data from article PMC10006169, “A phase I trial of LXS196, a protein kinase C (PKC) inhibitor, for metastatic uveal melanoma” (British Journal of Cancer, 2023).
“And” between values parts separate entries of the source, which are not always exact repeats. Identical values can stand only once. Marks after values point to notes of the source that are not given here.

System: patients with MUM
Experiment: Grade ≥3 serious adverse events regardless of study drug relationship
Type: in vivo, human
Description: Routine safety assessments, including laboratory assessments, physical examinations, vital signs and electrocardiograms (ECGs), were conducted at regular intervals throughout the study and more frequently as needed following patient assessment by the treating physician. Adverse events (AEs) were assessed continuously according to the National Cancer Institute Common Terminology Criteria for Adverse Events (NCI-CTCAE) v4.03.

## CC1(N)CCN(c2cccnc2NC(=O)c2nc(-c3ncccc3C(F)(F)F)cnc2N)CC1 [LXS196]
100 mg QD
  Acute kidney injury SAE: 0 n (%)
  Cellulitis SAE: 0 n (%)
  Constipation SAE: 0 n (%)
  Diarrhoea SAE: 0 n (%)
  Eyelid bleeding SAE: 0 n (%)
  Hepatic cytolysis SAE: 0 n (%)
  Hepatic failure SAE: 0 n (%)
  Hypotension SAE: 0 n (%)
  Nausea SAE: 0 n (%)
  Neutrophil count decreased SAE: 0 n (%)
  Oedema peripheral SAE: 0 n (%)
  Patients with ≥1 SAE: 0 n (%)
  Pneumonia SAE: 0 n (%)
  Rash pruritic SAE: 0 n (%)
  Thrombocytopenia SAE: 0 n (%)
  Vomiting SAE: 0 n (%)
200 mg BID
  Acute kidney injury SAE: 0 n (%)
  Cellulitis SAE: 1 (16.7) n (%)
  Constipation SAE: 0 n (%)
  Diarrhoea SAE: 0 n (%)
  Eyelid bleeding SAE: 0 n (%)
  Hepatic cytolysis SAE: 0 n (%)
  Hepatic failure SAE: 0 n (%)
  Hypotension SAE: 0 n (%)
  Nausea SAE: 0 n (%)
  Neutrophil count decreased SAE: 0 n (%)
  Oedema peripheral SAE: 0 n (%)
  Patients with ≥1 SAE: 1 (16.7) n (%)
  Pneumonia SAE: 0 n (%)
  Rash pruritic SAE: 0 n (%)
  Thrombocytopenia SAE: 0 n (%)
  Vomiting SAE: 0 n (%)
200 mg QD
  Acute kidney injury SAE: 0 n (%)
  Cellulitis SAE: 0 n (%)
  Diarrhoea SAE: 0 n (%)
  Eyelid bleeding SAE: 0 n (%)
  Hepatic cytolysis SAE: 0 n (%)
  Hepatic failure SAE: 0 n (%)
  Hypotension SAE: 0 n (%)
  Nausea SAE: 1 (25.0) n (%)
  Neutrophil count decreased SAE: 0 n (%)
  Oedema peripheral SAE: 0 n (%)
  Patients with ≥1 SAE: 1 (25.0) n (%)
  Pneumonia SAE: 1 (25.0) n (%)
  Rash pruritic SAE: 0 n (%)
  Thrombocytopenia SAE: 0 n (%)
  Vomiting SAE: 1 (25.0) n (%)
300 mg BID (RDE)
  Acute kidney injury SAE: 1 (5.6) n (%)
  Cellulitis SAE: 0 n (%)
  Constipation SAE: 0 n (%)
  Diarrhoea SAE: 0 n (%)
  Eyelid bleeding SAE: 1 (5.6) n (%)
  Hepatic cytolysis SAE: 1 (5.6) n (%)
  Hepatic failure SAE: 1 (5.6) n (%)
  Hypotension SAE: 0 n (%)
  Nausea SAE: 0 n (%)
  Neutrophil count decreased SAE: 1 (5.6) n (%)
  Oedema peripheral SAE: 1 (5.6) n (%)
  Patients with ≥1 SAE: 5 (27.8) n (%)
  Pneumonia SAE: 1 (5.6) n (%)
  Rash pruritic SAE: 1 (5.6) n (%)
  Thrombocytopenia SAE: 1 (5.6) n (%)
  Vomiting SAE: 0 n (%)
300 mg QD
  Acute kidney injury SAE: 0 n (%)
  Cellulitis SAE: 0 n (%)
  Constipation SAE: 0 n (%)
  Diarrhoea SAE: 0 n (%)
  Eyelid bleeding SAE: 0 n (%)
  Hepatic cytolysis SAE: 0 n (%)
  Hepatic failure SAE: 0 n (%)
  Hypotension SAE: 0 n (%)
  Nausea SAE: 0 n (%)
  Neutrophil count decreased SAE: 0 n (%)
  Oedema peripheral SAE: 0 n (%)
  Patients with ≥1 SAE: 0 n (%)
  Pneumonia SAE: 0 n (%)
  Rash pruritic SAE: 0 n (%)
  Thrombocytopenia SAE: 0 n (%)
  Vomiting SAE: 0 n (%)
400 mg BID
  Acute kidney injury SAE: 0 n (%)
  Cellulitis SAE: 0 n (%)
  Constipation SAE: 0 n (%)
  Diarrhoea SAE: 0 n (%)
  Eyelid bleeding SAE: 0 n (%)
  Hepatic cytolysis SAE: 0 n (%)
  Hepatic failure SAE: 0 n (%)
  Hypotension SAE: 1 (16.7) n (%)
  Nausea SAE: 0 n (%)
  Neutrophil count decreased SAE: 0 n (%)
  Oedema peripheral SAE: 0 n (%)
  Patients with ≥1 SAE: 1 (16.7) n (%)
  Pneumonia SAE: 0 n (%)
  Rash pruritic SAE: 0 n (%)
  Thrombocytopenia SAE: 0 n (%)
  Vomiting SAE: 0 n (%)
500 mg QD
  Acute kidney injury SAE: 0 n (%)
  Cellulitis SAE: 0 n (%)
  Constipation SAE: 0 n (%)
  Diarrhoea SAE: 0^b n (%)
  Eyelid bleeding SAE: 0 n (%)
  Hepatic cytolysis SAE: 0 n (%)
  Hepatic failure SAE: 0 n (%)
  Hypotension SAE: 3 (27.3) n (%)
  Nausea SAE: 0 n (%)
  Neutrophil count decreased SAE: 0 n (%)
  Oedema peripheral SAE: 0 n (%)
  Patients with ≥1 SAE: 3 (27.3) n (%)
  Pneumonia SAE: 0 n (%)
  Rash pruritic SAE: 0 n (%)
  Thrombocytopenia SAE: 0 n (%)
  Vomiting SAE: 0 n (%)
800 mg QD
  Acute kidney injury SAE: 0 n (%)
  Cellulitis SAE: 0 n (%)
  Constipation SAE: 0 n (%)
  Diarrhoea SAE: 0 n (%)
  Eyelid bleeding SAE: 0 n (%)
  Hepatic cytolysis SAE: 0 n (%)
  Hepatic failure SAE: 0 n (%)
  Hypotension SAE: 1 (100) n (%)
  Nausea SAE: 0 n (%)
  Neutrophil count decreased SAE: 0 n (%)
  Oedema peripheral SAE: 0 n (%)
  Patients with ≥1 SAE: 1 (100) n (%)
  Pneumonia SAE: 0 n (%)
  Rash pruritic SAE: 0 n (%)
  Thrombocytopenia SAE: 0 n (%)
  Vomiting SAE: 0 n (%)
1000 mg QD
  Acute kidney injury SAE: 0 n (%)
  Cellulitis SAE: 0 n (%)
  Constipation SAE: 0 n (%)
  Diarrhoea SAE: 0 n (%)
  Eyelid bleeding SAE: 0 n (%)
  Hepatic cytolysis SAE: 0 n (%)
  Hepatic failure SAE: 0 n (%)
  Hypotension SAE: 1 (25.0) n (%)
  Nausea SAE: 0 n (%)
  Neutrophil count decreased SAE: 0 n (%)
  Oedema peripheral SAE: 0 n (%)
  Patients with ≥1 SAE: 2 (50.0) n (%)
  Pneumonia SAE: 1 (25.0) n (%)
  Rash pruritic SAE: 0 n (%)
  Thrombocytopenia SAE: 0 n (%)
  Vomiting SAE: 0 n (%)
All BID
  Acute kidney injury SAE: 1 (3.3) n (%)
  Cellulitis SAE: 1 (3.3) n (%)
  Constipation SAE: 0 n (%)
  Diarrhoea SAE: 0 n (%)
  Eyelid bleeding SAE: 1 (3.3) n (%)
  Hepatic cytolysis SAE: 1 (3.3) n (%)
  Hepatic failure SAE: 1 (3.3) n (%)
  Hypotension SAE: 1 (3.3) n (%)
  Nausea SAE: 0 n (%)
  Neutrophil count decreased SAE: 1 (3.3) n (%)
  Oedema peripheral SAE: 1 (3.3) n (%)
  Patients with ≥1 SAE: 7 (23.3) n (%)
  Pneumonia SAE: 1 (3.3) n (%)
  Rash pruritic SAE: 1 (3.3) n (%)
  Thrombocytopenia SAE: 1 (3.3) n (%)
  Vomiting SAE: 0 n (%)
All QD
  Acute kidney injury SAE: 0 n (%)
  Cellulitis SAE: 0 n (%)
  Constipation SAE: 0^b n (%)
  Diarrhoea SAE: 0^b n (%)
  Eyelid bleeding SAE: 0 n (%)
  Hepatic cytolysis SAE: 0 n (%)
  Hepatic failure SAE: 0 n (%)
  Hypotension SAE: 5 (13.2) n (%)
  Nausea SAE: 1 (2.6) n (%)
  Neutrophil count decreased SAE: 0 n (%)
  Oedema peripheral SAE: 0 n (%)
  Patients with ≥1 SAE: 7 (18.4) n (%)
  Pneumonia SAE: 2 (5.3) n (%)
  Rash pruritic SAE: 0 n (%)
  Thrombocytopenia SAE: 0 n (%)
  Vomiting SAE: 1 (2.6) n (%)
All patients
  Acute kidney injury SAE: 1 (1.5) n (%)
  Cellulitis SAE: 1 (1.5) n (%)
  Constipation SAE: 0^b n (%)
  Diarrhoea SAE: 0^b n (%)
  Eyelid bleeding SAE: 1 (1.5) n (%)
  Hepatic cytolysis SAE: 1 (1.5) n (%)
  Hepatic failure SAE: 1 (1.5) n (%)
  Hypotension SAE: 6 (8.8) n (%)
  Nausea SAE: 1 (1.5) n (%)
  Neutrophil count decreased SAE: 1 (1.5) n (%)
  Oedema peripheral SAE: 1 (1.5) n (%)
  Patients with ≥1 SAE: 14 (20.6%) n (%) and 14 (20.6) n (%)
  Pneumonia SAE: 3 (4.4) n (%)
  Rash pruritic SAE: 1 (1.5) n (%)
  Thrombocytopenia SAE: 1 (1.5) n (%)
  Vomiting SAE: 1 (1.5) n (%)
